Data on 22 compounds can be found in patent US12393007B2, “Method for adapting optical properties of an immersion mixture, and immersion mixtures and components thereof” (Carl Zeiss Microscopy GmbH, priority 2018, dated 2025).

A short description of series [1]: Refractive index ne at 23° C., reference wavelength 546.1 nm. The format is physicochemical.
For series [2] the following is noted: source Merck; cited from earlier work.
Where [3] appears, read: pure substance, 23° C., 546.1 nm.

Counter-ions that a name gives are not always drawn. Like-named read-outs stand apart in the source and are kept apart here.

`CCOC(=O)CCC(=O)OCC` [diethyl succinate]: in series [1] (setting [3]), the “ne (refractive index) of the substance” value came out at 1.4200.
Regarding `CCOC(=O)/C=C\C(=O)OCC` [diethyl maleate], in series [1] (setting [3]), the “ne (refractive index) of the substance” value was 1.4414.
Consider “tetrahydrofurfuryl alcohol polyethylene glycol ether”, for which the “ne (refractive index) of the substance” value in series [1] was 1.4621.
For the compound `CCOCCOCCOCC` [diethylene glycol diethyl ether], in series [1] (setting [3]), the “ne (refractive index) of the substance” value is 1.4126.
On to `CCCCC(CC)COC(=O)CCCCCCCCC(=O)OCC(CC)CCCC` (centres unmarked) [bis (2-ethylhexyl) sebacate], for which the “ne (refractive index) of the substance” value in series [1] (setting [3]) came to 1.4511.
On to “bis(hydroxymethyl)perfluoropolyether [Cheminox OXF-3PO-OH]”, for which the “ne (refractive index) of the substance” value in series [1] (setting [3]) is recorded as 1.3220.
Same read-out and setting: in the case of `CCCCC(CC)C(=O)OCCOCCOCCOC(=O)C(CC)CCCC` (centres unmarked) [triethylene glycol bis(2-ethylhexanoate)] it was 1.4449.
`N#C[S-].[Na+]` [sodium thiocyanate]: the “ne (refractive index) of aqueous solution 200 g/L” value in series [1] is recorded as 1.3765.
For `CCOC(=O)CC(O)(CC(=O)OCC)C(=O)OCC` [triethyl citrate], the “ne (refractive index) of the substance” value in series [1] (setting [3]) amounted to 1.4431.
As for `O.O.[Na+].[Na+].[O]=[Mo](=[O])([O-])[O-]` [sodium molybdate dihydrate], in series [2], the “solubility in water (20° C.)” value is 840 mg/mL.
For `OCC(F)(OC(F)(F)C(F)(OC(F)(F)C(F)(F)C(F)(F)F)C(F)(F)F)C(F)(F)F` (centres unmarked) [Cheminox PO-3-OH, 2,3,3,3-tetrafluoro-2-[1,1,2,3,3,3-hexafluoro-2-(heptafluoropropoxy)propoxy]-1-propanol], the “ne (refractive index) of the substance” value in series [1] amounted to 1.2944.
Take `CCOC(=O)/C=C/C(=O)OCC` [diethyl fumarate]: the “ne (refractive index) of the substance” value in series [1] (setting [3]) is 1.4419.
On the same count and under the same terms, as for `CC(=O)CC(C)(C)O` [diacetone alcohol, 4-hydroxy-4-methyl-2-pentanone], the figure is 1.4244.
`CCCC(O)C(CC)CO` (centres unmarked) [2-ethylhexane-1,3-diol]: the “ne (refractive index) of the substance” value in series [1] (setting [3]) is recorded as 1.4518.
Consider `CC(=O)OCCOC(C)=O` [ethylene glycol diacetate], for which the “ne (refractive index) of the substance” value in series [1] (setting [3]) is given as 1.4161.
Regarding ammonium sulfate, in series [1], the “ne (refractive index) of aqueous solution 200 g/L” value is recorded as 1.3629.
Take `COC(=O)CCCCC(=O)OC` [dimethyl adipate]: the “ne (refractive index) of the substance” value in series [1] (setting [3]) is 1.4289.
Still for that read-out and setting: in the case of `COC(=O)/C=C\C(=O)OC` [dimethyl maleate] it was 1.4435.
On to dimethyl propylene urea, for which, in series [1], the “ne (refractive index) of the substance” value came to 1.4909.
Regarding `O.O.[Na+].[Na+].[O]=[W](=[O])([O-])[O-]` [sodium tungstate dihydrate], the “ne (refractive index) of aqueous solution 200 g/L” value in series [1] was 1.3531. The “solubility in water (20° C.)” value in series [2] is 730 mg/mL.
Take `O.O.O.O.O.O.O.O=S(=O)([O-])[O-].[Mg+2]` [magnesium sulfate heptahydrate]: in series [1], the “ne (refractive index) of aqueous solution 200 g/L” value is 1.3529.
The same measure, in the same setting: as for `O=C([O-])c1ccccc1O.[Na+]` [sodium salicylate], the figure is 1.3747.
